Data taken from patent US11629171B2, “Beta-hairpin peptidomimetics” (POLYPHOR AG, priority 2017, dated 2023).
In brackets after ≈: the same amount, converted by molar mass. Where a SMILES comes first, the peptide text is derived from it. Bridges are numbered along the chain shown (N, C = ends). Roman numbers before positions name the chains, in order. [ ]: non-standard residue; d: D form. Leu(3R-OH) = CC(C)[C@@H](O)[C@H](N)C(=O)O; Pen = CC(C)(S)[C@H](N)C(=O)O; Tle = CC(C)(C)[C@H](N)C(=O)O; Hiv = CC(C)[C@H](O)C(=O)O; dDab = NCC[C@@H](N)C(=O)O; hSer = N[C@@H](CCO)C(=O)O; Orn = NCCC[C@H](N)C(=O)O; Dab = NCC[C@H](N)C(=O)O; Dap = NC[C@H](N)C(=O)O; Mpa = O=C(O)CCS

Key:
Format in all cases: cell-based
[1] = system: human red blood cells (hRBC); assay: Hemolysis; details: red cells of human, 1 h, 200
Method in brief: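 Washed fresh human RBC (20% v/v) incubated with peptide at 200 μg/mL for 1 h at 37° C with shaking. Supernatant OD540 measured after dilution, blank corrected; percent hemolysis = OD540 peptide / OD540 of 2% Triton X-100 lysis × 100, PBS with 10% water as 0%.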

[2] = system: Klebsiella pneumoniae 968733; details: 968733
Method in brief: (§1)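 CLSI broth microdilution: inoculum ~10^6 CFU/mL in cation-adjusted Mueller-Hinton II broth, with peptide in serial two-fold dilutions plus Polysorbate 80 (0.002% final). MIC (μg/mL) is the lowest concentration without visible growth after 18-20 hours at 35° C.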

[3] = system: Escherichia coli ATCC 25922; details: ATCC 25922
Method in brief: as §1

[4] = system: Escherichia coli 926415; details: 926415
Method in brief: as §1

[5] = system: Acinetobacter baumannii 872842; details: 872842
Method in brief: as §1

[6] = system: Pseudomonas aeruginosa ATCC 27853; details: ATCC 27853
Method in brief: as §1

[7] = system: Enterobacter cloacae 848840; details: 848840
Method in brief: as §1

[8] = system: Klebsiella pneumoniae SSI #3010; details: SSI #3010
Method in brief: as §1

[9] = system: Acinetobacter baumannii DSM 30008; details: DSM 30008
Method in brief: as §1

| SMILES | MIC [2] | MIC [3] | MIC [4] | MIC [5] | MIC [6] | MIC [7] | MIC [8] | MIC [9] | Hemolysis at 200 μg/mL [1] |
| --- | --- | --- | --- | --- | --- | --- | --- | --- | --- |
| CC(=O)N[C@@H](CC(C)C)C(=O)N[C@H]1CCCNC(=O)[C@@H]([C@H](C)O)NC(=O)[C@H](C(C)(C)C)NC(=O)[C@H](CO)NC(=O)[C@H](Cc2c[nH]c3ccccc23)NC(=O)[C@H](CCO)NC(=O)[C@@H](CCN)NC(=O)[C@H](CCC(=O)N[C@@H](CCN)C(=O)N[C@H](C(=O)N[C@@H](CN)C(=O)N[C@H]2CCNC(=O)[C@H]([C@@H](C)O)NC(=O)[C@H](CCN)NC(=O)[C@H](CCN)NC(=O)[C@H](CC(C)C)NC(=O)[C@@H](CC(C)C)NC(=O)[C@H](CCN)NC2=O)[C@@H](C)O)NC(=O)[C@H](CN)NC(=O)[C@H](Cc2ccc(O)cc2)NC1=O [Ex. 33] (I: Ac-L[Orn]Y[Dap]E[dDab][hSer]WS[Tle][dT] / II: [Dab]T[Dap][Dab][Dab][dL]L[Dab][Dab]T; lactam I:2-I:C, II:4-II:C; amide I:5-II:N) | 0.25 µg/mL (≈ 0.107 µM) | 0.0625 µg/mL (≈ 0.0268 µM) | 0.125 µg/mL (≈ 0.0536 µM) | 0.0625 µg/mL (≈ 0.0268 µM) | 0.25 µg/mL (≈ 0.107 µM) | 0.125 µg/mL (≈ 0.0536 µM) | 0.125 µg/mL (≈ 0.0536 µM) | 0.0625 µg/mL (≈ 0.0268 µM) | <1% |
| CC(=O)N[C@H](C(=O)N[C@H](C(=O)N[C@@H](Cc1ccc(O)cc1)C(=O)N[C@H]1CSSC[C@@H](C(=O)N[C@H](C(=O)N[C@@H](C)C(=O)N[C@H](C(N)=O)[C@@H](C)O)C(C)(C)C)NC(=O)[C@H](Cc2c[nH]c3ccccc23)NC(=O)[C@H](CO)NC(=O)[C@@H](CCN)NC(=O)[C@H](CCC(=O)N[C@@H](CCN)C(=O)N[C@H](C(=O)N[C@@H](CN)C(=O)N[C@H]2CCNC(=O)[C@H]([C@@H](C)O)NC(=O)[C@H](CCN)NC(=O)[C@H](CCN)NC(=O)[C@H](CC(C)C)NC(=O)[C@@H](CC(C)C)NC(=O)[C@H](CCN)NC2=O)[C@@H](C)O)NC1=O)[C@@H](C)O)C(C)C [Ex. 220] (I: Ac-VTYCE[dDab]SWC[Tle]AT-NH2 / II: [Dab]T[Dap][Dab][Dab][dL]L[Dab][Dab]T; disulfide I:4-I:9; amide I:5-II:N; lactam II:4-II:C) | 0.125 µg/mL (≈ 0.0518 µM) | 0.03125 µg/mL (≈ 0.013 µM) | 0.125 µg/mL (≈ 0.0518 µM) | 0.0625 µg/mL (≈ 0.0259 µM) | 0.125 µg/mL (≈ 0.0518 µM) | 0.125 µg/mL (≈ 0.0518 µM) | 0.0625 µg/mL (≈ 0.0259 µM) | 0.03125 µg/mL (≈ 0.013 µM) | <1% |
| CC(=O)N[C@H](C(=O)N[C@H](C(=O)N[C@@H](Cc1ccc(O)cc1)C(=O)N[C@H]1CSSC(C)(C)[C@@H](C(=O)N[C@H](C(=O)N[C@@H](CCC(=O)O)C(=O)N[C@H](C(N)=O)[C@@H](C)O)C(C)(C)C)NC(=O)[C@H](Cc2c[nH]c3ccccc23)NC(=O)[C@H](CCN)NC(=O)[C@@H](CCN)NC(=O)[C@H](CCC(=O)N[C@@H](CCN)C(=O)N[C@H](C(=O)N[C@@H](CN)C(=O)N[C@H]2CCNC(=O)[C@H]([C@@H](C)O)NC(=O)[C@H](CCN)NC(=O)[C@H](CCN)NC(=O)[C@H]([C@H](O)C(C)C)NC(=O)[C@@H](CC(C)C)NC(=O)[C@H](CCN)NC2=O)[C@@H](C)O)NC1=O)[C@@H](C)O)C(C)C [Ex. 225] (I: Ac-VTYCE[dDab][Dab]W[Pen][Tle]ET-NH2 / II: [Dab]T[Dap][Dab][Dab][dL][Leu(3R-OH)][Dab][Dab]T; disulfide I:4-I:9; amide I:5-II:N; lactam II:4-II:C) | 1 µg/mL (≈ 0.396 µM) | 0.0625 µg/mL (≈ 0.0247 µM) | 0.25 µg/mL (≈ 0.0989 µM) | 0.25 µg/mL (≈ 0.0989 µM) | 0.125 µg/mL (≈ 0.0495 µM) | 0.125 µg/mL (≈ 0.0495 µM) | 0.0625 µg/mL (≈ 0.0247 µM) | 0.125 µg/mL (≈ 0.0495 µM) | <1% |
| CC(C)C[C@@H]1NC(=O)[C@@H](CC(C)C)NC(=O)[C@H](CCN)NC(=O)[C@@H](NC(=O)[C@H](CN)NC(=O)[C@@H](NC(=O)[C@H](CCN)NC(=O)CC[C@H]2NC(=O)[C@@H](CCN)NC(=O)CNC(=O)[C@H](CCN)NC(=O)[C@H](Cc3ccc(O)cc3)NC(=O)[C@@H](NC(=O)[C@@H](O)C(C)C)CSSC[C@@H](C(=O)N[C@H](C(N)=O)[C@@H](C)O)NC(=O)[C@H](C(C)(C)C)NC(=O)[C@H](CO)NC(=O)[C@H](Cc3c[nH]c4ccccc34)NC2=O)[C@@H](C)O)CCNC(=O)[C@H]([C@@H](C)O)NC(=O)[C@H](CCN)NC(=O)[C@H](CCN)NC1=O [Ex. 171] (I: H-[Hiv]CY[Dab]G[dDab][dE]WS[Tle]CT-NH2 / II: [Dab]T[Dap][Dab][Dab][dL]L[Dab][Dab]T; disulfide I:2-I:11; amide I:7-II:N; lactam II:4-II:C) | 0.5 µg/mL (≈ 0.212 µM) | 0.125 µg/mL (≈ 0.0531 µM) | 0.125 µg/mL (≈ 0.0531 µM) | 0.0625 µg/mL (≈ 0.0265 µM) | 0.25 µg/mL (≈ 0.106 µM) | 0.5 µg/mL (≈ 0.212 µM) | 0.125 µg/mL (≈ 0.0531 µM) | 0.0625 µg/mL (≈ 0.0265 µM) | <1% |

Further lines, with some results ahead:

| MIC [2] | MIC [3] | MIC [4] | MIC [5] | MIC [6] | MIC [7] | MIC [8] | MIC [9] | SMILES | Hemolysis at 200 μg/mL [1] |
| --- | --- | --- | --- | --- | --- | --- | --- | --- | --- |
| 0.25 µg/mL (≈ 0.102 µM) | 0.03125 µg/mL (≈ 0.0127 µM) | 0.25 µg/mL (≈ 0.102 µM) | 0.0625 µg/mL (≈ 0.0254 µM) | 0.125 µg/mL (≈ 0.0509 µM) | 0.125 µg/mL (≈ 0.0509 µM) | 0.0625 µg/mL (≈ 0.0254 µM) | 0.0625 µg/mL (≈ 0.0254 µM) | CC(=O)N[C@H](C(=O)N[C@H](C(=O)N[C@@H](Cc1ccc(O)cc1)C(=O)N[C@H]1CSSC(C)(C)[C@@H](C(=O)N[C@H](C(=O)N[C@H](C(=O)N[C@H](C(N)=O)[C@@H](C)O)[C@@H](C)O)C(C)C)NC(=O)[C@H](Cc2c[nH]c3ccccc23)NC(=O)[C@H](CO)NC(=O)[C@@H](CCN)NC(=O)[C@H](CCC(=O)N[C@@H](CCN)C(=O)N[C@H](C(=O)N[C@@H](CN)C(=O)N[C@H]2CCNC(=O)[C@H]([C@@H](C)O)NC(=O)[C@H](CCN)NC(=O)[C@H](CCN)NC(=O)[C@H](CC(C)C)NC(=O)[C@@H](CC(C)C)NC(=O)[C@H](CCN)NC2=O)[C@@H](C)O)NC1=O)[C@@H](C)O)C(C)C [Ex. 222] (I: Ac-VTYCE[dDab]SW[Pen]VTT-NH2 / II: [Dab]T[Dap][Dab][Dab][dL]L[Dab][Dab]T; disulfide I:4-I:9; amide I:5-II:N; lactam II:4-II:C) | 1% |
| 0.25 µg/mL (≈ 0.0994 µM) | 0.0625 µg/mL (≈ 0.0249 µM) | 0.125 µg/mL (≈ 0.0497 µM) | 0.0625 µg/mL (≈ 0.0249 µM) | 0.25 µg/mL (≈ 0.0994 µM) | 0.125 µg/mL (≈ 0.0497 µM) | 0.125 µg/mL (≈ 0.0497 µM) | 0.03125 µg/mL (≈ 0.0124 µM) | CC(C)C[C@@H]1NC(=O)[C@@H](CC(C)C)NC(=O)[C@H](CCN)NC(=O)[C@@H](NC(=O)[C@H](CN)NC(=O)[C@@H](NC(=O)[C@H](CCN)NC(=O)CC[C@@H]2NC(=O)[C@H](CN)NC(=O)[C@H](Cc3ccc(O)cc3)NC(=O)[C@H]([C@@H](C)O)NC(=O)[C@H](C(C)C)NC(=O)CCSSC[C@@H](C(N)=O)NC(=O)[C@H](CO)NC(=O)[C@H](C)NC(=O)[C@H](C(C)(C)C)NC(=O)[C@H](CO)NC(=O)[C@H](Cc3c[nH]c4ccccc34)NC(=O)[C@H](CO)NC(=O)[C@@H](CCN)NC2=O)[C@@H](C)O)CCNC(=O)[C@H]([C@@H](C)O)NC(=O)[C@H](CCN)NC(=O)[C@H](CCN)NC1=O [Ex. 245] (I: [Mpa]VTY[Dap]E[dDab]SWS[Tle]ASC-NH2 / II: [Dab]T[Dap][Dab][Dab][dL]L[Dab][Dab]T; disulfide I:1-I:14; amide I:6-II:N; lactam II:4-II:C) | 1% |
| 0.25 µg/mL (≈ 0.105 µM) | 0.03125 µg/mL (≈ 0.0131 µM) | 0.125 µg/mL (≈ 0.0523 µM) | 0.0625 µg/mL (≈ 0.0261 µM) | 0.125 µg/mL (≈ 0.0523 µM) | 0.0625 µg/mL (≈ 0.0261 µM) | 0.0625 µg/mL (≈ 0.0261 µM) | 0.03125 µg/mL (≈ 0.0131 µM) | CC(=O)N[C@H](C(=O)N[C@H]1CCNC(=O)C[C@@H](C(=O)N[C@@H](CO)C(N)=O)NC(=O)[C@H](C(C)(C)C)NC(=O)[C@H](CO)NC(=O)[C@H](Cc2c[nH]c3ccccc23)NC(=O)[C@H](CO)NC(=O)[C@@H](CCN)NC(=O)[C@H](CCC(=O)N[C@@H](CCN)C(=O)N[C@H](C(=O)N[C@@H](CN)C(=O)N[C@H]2CCNC(=O)[C@H]([C@@H](C)O)NC(=O)[C@H](CCN)NC(=O)[C@H](CCN)NC(=O)[C@H](CC(C)C)NC(=O)[C@@H](CC(C)C)NC(=O)[C@H](CCN)NC2=O)[C@@H](C)O)NC(=O)[C@H](CN)NC(=O)[C@H](Cc2ccc(O)cc2)NC1=O)C(C)C [Ex. 148] (I: Ac-V[Dab]Y[Dap]E[dDab]SWS[Tle]DS-NH2 / II: [Dab]T[Dap][Dab][Dab][dL]L[Dab][Dab]T; lactam I:2-I:11, II:4-II:C; amide I:5-II:N) | <1% |
